One block for each compound: values may come before it.
Experiments:
[1] = system: restenosis in porcine coronary arteries; assay: swine restenosis animal model, stent implantation; assay type: in vivo; conditions: 28 days after implantation, platinum anchoring layer stent with vs without drug coating
Excerpt: Briefly, studies conducted in support of the present invention compared the extent of restenosis at 28 days following stent implantation, in metal stents having an electroplated platinum anchoring layer, with or without a drug coating of Biolimus A-9.

[2] = in vitro drug elution in PBS from platinum-coated stent; assay type: physicochemical; conditions: 252 μg on platinum-plated anchoring layer stent, by day 34
Excerpt: FIG. 7 is an elution profile in PBS of the drug Biolimus A-9 from the stent of the invention as measured by the total amount of drug released in μg over cumulative time in hours.
It will be appreciated that the actual rate of drug release in vivo will be much greater, e.g., the bulk of the drug released will be released within the first few days following implantation, due to the greater hydrophobicity of the cell-membrane environment in vivo. However, the in vitro release in a purely aqueous medium provides a useful standard for formulating the drug coating, to achieve an effective drug release rate in vivo and also to achieve, a desired drug-layer cohesiveness.

physchem = assay: physchem
Excerpt: The coating may also include binders or small molecules designed to optimize the tissue solubility of the drug coating, to produce a desired cohesiveness in the drug coating, and a desired drug release rate in the implanted stent.

[3] = cited from earlier work

fraction of drug eluted from the stent [2]: about one-third
log P (log partition coefficient between octanol and water) (physchem): 7.63
SMILES: CCOCCO[C@@H]1CC[C@@H](C[C@@H](C)[C@@H]2CC(=O)[C@H](C)/C=C(\C)[C@@H](O)[C@@H](OC)C(=O)[C@H](C)C[C@H](C)/C=C/C=C/C=C(\C)[C@@H](OC)C[C@@H]3CC[C@@H](C)[C@@](O)(O3)C(=O)C(=O)N3CCCC[C@H]3C(=O)O2)C[C@H]1OC [Biolimus A-9]
extent of restenosis [1]: significantly reduced the extent of restenosis

log P (log partition coefficient between octanol and water) (physchem): 6.70
SMILES: CO[C@H]1C[C@@H]2CC[C@@H](C)[C@@](O)(O2)C(=O)C(=O)N2CCCC[C@H]2C(=O)O[C@H]([C@H](C)C[C@@H]2CC[C@@H](OCCO)[C@H](OC)C2)CC(=O)[C@H](C)/C=C(\C)[C@@H](O)[C@@H](OC)C(=O)[C@H](C)C[C@H](C)/C=C/C=C/C=C/1C [everolimus]

chromatographic logP (physchem): 4.68
SMILES: CC(=O)O[C@H]1C(=O)[C@@]2(C)[C@H]([C@H](OC(=O)c3ccccc3)[C@]3(O)C[C@H](OC(=O)[C@H](O)[C@@H](NC(=O)c4ccccc4)c4ccccc4)C(C)=C1C3(C)C)[C@]1(OC(C)=O)CO[C@@H]1C[C@@H]2O [paclitaxel]

SMILES: CCc1ccc(CCOc2ccc(CC3SC(=O)NC3=O)cc2)nc1 (stereo not drawn) [pioglitazone]
solubility in acetone ([3]; acetone): slightly soluble
solubility in ethanol ([3]; ethanol): slightly soluble
solubility in water ([3]; water): insoluble

SMILES: CO[C@H]1C[C@@H]2CC[C@@H](C)[C@@](O)(O2)C(=O)C(=O)N2CCCC[C@H]2C(=O)O[C@H]([C@H](C)C[C@@H]2CC[C@@H](O)[C@H](OC)C2)CC(=O)[C@H](C)/C=C(\C)[C@@H](O)[C@@H](OC)C(=O)[C@H](C)C[C@H](C)/C=C/C=C/C=C/1C [rapamycin]
log P (log partition coefficient between octanol and water) (physchem; modified HPLC method (Lombardo et al.)): 6.51
